# Assays:
# [1] = molecular target: BenM (Acinetobacter baylyi, UniProt O68014); details: benzoic acid alone; cited from earlier work
# [2] = test system: luxCDABE gene fusions; details: cited from earlier work
# [3] = test system: yhcP; assay: DNA microarray gene expression profiling of pHBA-treated E. coli; type: cell-based; details: 25 mM pHBA, 60 minutes
# Description: (§1) The alterations in the E. coli gene expression profile upon exposure to pHBA were examined using DNA microarray technology. E. coli strain DE112 (Van Dyk et al. Appl. Environ. Microbiol. 60:1414-1420 (1994)) was grown in Vogel-Bonner minimal medium with glucose as a carbon source to an OD600 of 0.2. At this point the culture was split in two flasks and pHBA in the acid form was added to one flask from a stock solution in ethanol to achieve a final pHBA concentration of 25 mM. The pH of the medium in the flask with pHBA was lowered by an unmeasured amount. An equivalent volume of ethanol without pHBA was added to the other flask. Approximately 58% growth inhibition resulted from the pHBA treatment under these conditions. Cells were harvested from the control and treated flasks at 30 and 60 minutes after pHBA addition. RNA isolation, array hybridization, and data analysis were done as previously described (Wei et al, J. Bacteriol. 183:545-556 (2001), Smulski et al. J. Bacteriol. 183:3353-3364 (2001)). […] These three genes are predicted to be transcribed as an operon. The reproducible observed co-regulation in response to pHBA treatment is consistent with this prediction. Thus, these three genes will be referred to as the yhcRQP operon.
# [4] = test system: yhcQ; assay: as above; type: cell-based; details: 25 mM pHBA, 60 minutes
# Description: as §1
# [5] = test system: yhcR; assay: as above; type: cell-based; details: 25 mM pHBA, 60 minutes
# Description: as §1
# [6] = test system: E. coli strain DE112; assay: Growth inhibition by pHBA treatment; type: cell-based; details: Escherichia coli, 25 mM pHBA (acid form), Vogel-Bonner minimal medium with glucose
# Description: as §1
# [7] = test system: yhcRQP-luxCDABE gene fusion; assay: Bioluminescence kinetics in yhcS+ strain DPD2413 (DH5alphaE host), FIG. 1; type: cell-based, E. coli; details: 5 mM pHBA acid form, yhcS+ strain DPD2413, LB medium
# Description: (§2) E. coli strain DPD2410 is the DH5αE derived strain containing the yhcS::TN<Kan> mutation. Strains DH5αE and DPD2410 were transformed with pDEW655 to generate E. coli strains DPD2413 and DPD2415, respectively. […] The plate was incubated for 90 minutes at 37° C.; then 50 μl of the cultures was added to 50 μl of LB medium or to 50 μl of LB medium containing pHBA in the acid form, which had been added from a stock solution in ethanol. The final concentration of pHBA was 5 mM and the final concentration of ethanol was 0.25%. The pH of the medium with pHBA was lowered by an unmeasured amount. The bioluminescence was quantitated with a Luminoskan Ascent microplate luminometer (Thermo Labsystems, Franklin, Mass.). The results of this study are presented in FIG. 1, which is a plot of the bioluminescence intensity in relative light units (RLU) versus time in minutes. In the Figure, addition of pHBA was made at time zero. Solid lines are the response in the yhcS^+ strain, DPD2413. Dotted lines are the response in the yhcS^− strain, DPD2415. Circles represent pHBA treated cultures and triangles represent untreated cultures.
# [8] = test system: yhcRQP-luxCDABE gene fusion; assay: Bioluminescence kinetics in yhcS- strain DPD2415 (yhcS::TN<Kan>), FIG. 1; type: cell-based, E. coli; details: 5 mM pHBA acid form, yhcS::TN<Kan> strain DPD2415, LB medium
# Description: as §2
# [9] = test system: yhcRQP-luxCDABE gene fusion; assay: Bioluminescence response in yhcS+ strain DPD2436 (MG1655 host); type: cell-based, E. coli; details: thirty minutes, LB pH 7.0
# Description: A derivative of E. coli strain MG1655 (obtained from Prof. Douglas Berg, Washington University School of Medicine, St. Louis, […].) with the yhcS::TN<Kan> mutation was made by P1clr100Cm mediated transduction using phage grown on strain DPD2410 as a donor and selection for kanamycin resistance. […] Plasmid pDEW655 was moved to E. coli strains MG1655 and DPD2433 by transformation, selecting for Ampicillin resistance to generate strains DPD2436 and DPD2437, respectively. The bioluminescent response of these two strains to pHBA was tested. Aliquots (50 μl) of actively growing cultures at 37° C. in LB medium that had been previously diluted, and from overnight cultures in LB medium with 150 μg/ml Ampicillin were added to 50 μl of LB medium at pH 7.0 containing pHBA as the sodium salt form. Several concentrations of pHBA were tested.
# Further characterization of the signals that trigger activation of YhcS, was done using the yhcRQP-luxCDABE gene fusion containing E. coli strains DPD2411 or DPD2436.
# [10] = test system: yhcRQP-luxCDABE gene fusion; assay: Bioluminescence response in yhcS- strain DPD2437 (yhcS::TN<Kan>); type: cell-based, E. coli; details: thirty minutes, LB pH 7.0
# Description: A derivative of E. coli strain MG1655 (obtained from Prof. Douglas Berg, Washington University School of Medicine, St. Louis, […].) with the yhcS::TN<Kan> mutation was made by P1clr100Cm mediated transduction using phage grown on strain DPD2410 as a donor and selection for kanamycin resistance. The presence of the yhcS::TN<Kan> mutation in one of the resultant transductants, named DPD2433, was confirmed by PCR amplification. Plasmid pDEW655 was moved to E. coli strains MG1655 and DPD2433 by transformation, selecting for Ampicillin resistance to generate strains DPD2436 and DPD2437, respectively. The bioluminescent response of these two strains to pHBA was tested. Aliquots (50 μl) of actively growing cultures at 37° C. in LB medium that had been previously diluted, and from overnight cultures in LB medium with 150 μg/ml Ampicillin were added to 50 μl of LB medium at pH 7.0 containing pHBA as the sodium salt form. Several concentrations of pHBA were tested.
# Chain of BenM (O68014 whole entry, the tested form may be a part): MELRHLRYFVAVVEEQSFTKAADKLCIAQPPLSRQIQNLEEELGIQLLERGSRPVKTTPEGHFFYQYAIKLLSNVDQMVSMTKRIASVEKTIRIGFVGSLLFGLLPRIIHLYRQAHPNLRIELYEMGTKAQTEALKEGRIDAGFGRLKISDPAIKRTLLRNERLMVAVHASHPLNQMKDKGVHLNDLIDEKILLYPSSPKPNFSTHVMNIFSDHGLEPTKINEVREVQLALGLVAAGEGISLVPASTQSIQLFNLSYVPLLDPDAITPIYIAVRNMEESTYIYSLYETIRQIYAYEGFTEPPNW
compound,measurement,setting,value
"O=C(O)c1ccccc1 [Benzoic acid, benzoic acid]",induction of BenM activity,[1],"minimal, if any, induction"
CCn1cc(C(=O)O)c(=O)c2ccc(C)nc21 [nalidixic acid],up-regulation of genes in luxCDABE gene fusion collection,[2],selective up-regulation of ten genes
"O=C(O)c1ccc(O)cc1 [pHBA, para-hydroxybenzoic acid]",Ratio (treated/untreated),[3]; experiment 1,6.45
same,Signal in pHBA treated,[3]; experiment 1,7.52
same,Ratio (treated/untreated),[3]; experiment 2,12.1
same,Signal in pHBA treated,[3]; experiment 2,12.0
same,Ratio (treated/untreated),[4]; experiment 1,4.09
same,Signal in pHBA treated,[4]; experiment 1,1.61
same,Ratio (treated/untreated),[4]; experiment 2,22.3
same,Signal in pHBA treated,[4]; experiment 2,6.02
same,Ratio (treated/untreated),[5]; experiment 1,72.3
same,Signal in pHBA treated,[5]; experiment 1,1.37
same,Ratio (treated/untreated),[5]; experiment 2,10.5
same,Signal in pHBA treated,[5]; experiment 2,7.18
same,inhibition at 25000 µM,[6],~58%
same,"upregulation of yhcRQP-luxCDABE expression (in words, FIG. 1)",[7],rapid and dramatic upregulation
same,"upregulation of yhcRQP-luxCDABE expression (in words, FIG. 1)",[8],essentially abolished
same,RLU yhcS+,[9]; 1.6 mM pHBA sodium salt,6.72 RLU
same,Ratio treated/control yhcS+,[9]; 1.6 mM pHBA sodium salt,10.6
same,RLU yhcS+,[9]; 3.1 mM pHBA sodium salt,10.2 RLU
same,Ratio treated/control yhcS+,[9]; 3.1 mM pHBA sodium salt,16.2
same,RLU yhcS+,[9]; 6.2 mM pHBA sodium salt,16.2 RLU
same,Ratio treated/control yhcS+,[9]; 6.2 mM pHBA sodium salt,25.7
same,RLU yhcS+,[9]; 12.5 mM pHBA sodium salt,30.8 RLU
same,Ratio treated/control yhcS+,[9]; 12.5 mM pHBA sodium salt,48.8
same,RLU yhcS+,[9]; 25 mM pHBA sodium salt,66.6 RLU
same,Ratio treated/control yhcS+,[9]; 25 mM pHBA sodium salt,106
same,RLU yhcS+,[9]; 50 mM pHBA sodium salt,91.7 RLU
same,Ratio treated/control yhcS+,[9]; 50 mM pHBA sodium salt,145
same,RLU yhcS+,[9]; 100 mM pHBA sodium salt,0.437 RLU
same,Ratio treated/control yhcS+,[9]; 100 mM pHBA sodium salt,0.693
same,RLU yhcS-,[10]; 1.6 mM pHBA sodium salt,1.02 RLU
same,Ratio treated/control yhcS-,[10]; 1.6 mM pHBA sodium salt,1.25
same,RLU yhcS-,[10]; 3.1 mM pHBA sodium salt,1.16 RLU
same,Ratio treated/control yhcS-,[10]; 3.1 mM pHBA sodium salt,1.42
same,RLU yhcS-,[10]; 6.2 mM pHBA sodium salt,1.42 RLU
same,Ratio treated/control yhcS-,[10]; 6.2 mM pHBA sodium salt,1.75
same,RLU yhcS-,[10]; 12.5 mM pHBA sodium salt,1.82 RLU
same,Ratio treated/control yhcS-,[10]; 12.5 mM pHBA sodium salt,2.23
same,RLU yhcS-,[10]; 25 mM pHBA sodium salt,1.59 RLU
same,Ratio treated/control yhcS-,[10]; 25 mM pHBA sodium salt,1.95
same,RLU yhcS-,[10]; 50 mM pHBA sodium salt,0.614 RLU
same,Ratio treated/control yhcS-,[10]; 50 mM pHBA sodium salt,0.753
same,RLU yhcS-,[10]; 100 mM pHBA sodium salt,0.045 RLU
same,Ratio treated/control yhcS-,[10]; 100 mM pHBA sodium salt,0.055

# From US7384788B2, “Regulator/promoter for tunable gene expression and metabolite sensing” (priority 2003, dated 2008)
